For assay [1], the target named is T1, RsTSPO (Cereibacter sphaeroides, UniProt Q9RFC8, A136L/A138F/T137A).
T1 sequence (Q9RFC8 1-158 A136L/T137A/A138F): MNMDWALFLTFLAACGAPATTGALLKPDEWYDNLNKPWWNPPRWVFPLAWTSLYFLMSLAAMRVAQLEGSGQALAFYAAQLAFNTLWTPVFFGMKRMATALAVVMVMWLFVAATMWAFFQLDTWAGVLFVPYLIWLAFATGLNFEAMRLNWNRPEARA
Nature of the assay: fluorescence quenching. Type of assay: binding.

Assay [2] has as its target T2, RsTSPO (Cereibacter sphaeroides, UniProt Q9RFC8).
T2 sequence (Q9RFC8 1-158): T1 sequence (Q9RFC8 1-158 A136L/T137A/A138F) with L136A, A137T, F138A
Nature of the assay: fluorescence quenching. The settings on record: affinity value, symbol not given. It is filed as binding.

Assay [3] concerns the target T2, RsTSPO. Nature of the assay: binding to purified protein.
Assay [4] has as its target T1, RsTSPO. The assay can be described thus: binding to purified protein.
Assay [5] addresses T1, RsTSPO. Nature of the assay: binding to purified protein. The source holds these as a separate data set.
For assay [6], the target named is T2, RsTSPO. The assay can be described thus: binding to purified protein. Particulars: affinity value, symbol not given.

In general, Kd refers to a measure of binding affinity in units of concentration. Low readings indicate higher affinity, high ones lower affinity.

Each structure is given as a SMILES string. Where a chain is given by its changes, count along the chain named.

Take `CCC(C)N(C)C(=O)c1cc2ccccc2c(-c2ccccc2Cl)n1` (stereo not drawn) [PK11195]: the Kd is 15 ± 4 µM on RsTSPO [1] and 10 ± 1 µM on RsTSPO [2].

`CC(C)CCC[C@@H](C)[C@H]1CC[C@H]2[C@@H]3CC=C4C[C@@H](O)CC[C@]4(C)[C@H]3CC[C@]12C` [cholesterol]: the results for the dissociation constant (Kd) on RsTSPO [3] and on RsTSPO [4] were roughly 80 µM and roughly 0.02 µM, respectively.

Turning to `C=CC1=C(C)c2cc3[nH]c(cc4nc(cc5[nH]c(cc1n2)c(C)c5CCC(=O)O)C(CCC(=O)O)=C4C)c(C)c3C=C` [protoporphyrin IX], the dissociation constant (Kd) at RsTSPO [5] amounted to 1.1 ± 0.1 µM; on RsTSPO [6], 0.31 ± 0.01 µM.

The values are drawn from publication PMC5125615 (Biochemistry, 2015).
